Reference: patent publication US20240306641A1, “P-BOOSTER” (EUROCHEM ANTWERPEN, priority 2021, published 2024)
“Also recorded” adds a separate entry of the source.

Assays:
[1] = test system: SPX1 phosphate starvation biomarker (pSPX1::GUS); test: Chemical activity assessment: SPX1 suppression in Arabidopsis pSPX1::GUS reporter line (GUS stained area); assay type: in vivo, Arabidopsis thaliana
Procedure: (§1) All Arabidopsis plant experiments were performed using the Arabidopsis thaliana Columbia-0 background. The Arabidopsis pSPX1::GUS line is described in the […] 2008, 54: 965-975. For rice, the cultivar Nipponbare was used. For maize, the cultivars DKC 2931 and 8104 were used for regular pot experiments and sand-based pot experiments, respectively. For soybean, the cultivar Primus was used. […] The medium was solidified due to the addition of 0.6% Gelrite, unless stated otherwise. In case of vertical plates (root length and root hair measurements), the medium was supplied with 0.5% of sucrose and 1 μM (low phosphate, 1 μM KH2PO4, 9.9 mM KCl), 10 μM (low phosphate 10 μM KH2PO4, 9.9 mM KCl) or 1.25 mM KH2PO4 (high phosphate). Arabidopsis seeds were stratified for 2 days at 4° C. before germination. Seedlings were germinated in climate-controlled growth chambers at 22° C. under continuous light ([…] m^−2 s^−1). Husked rice seeds were germinated on wetted Whatman paper for 2 days at 37° C. and then transferred to Sterivent boxes or square Petri dishes with solid medium. Maize and soybean seeds were wetted 24 hours at room temperature prior to sowing in pots.
For the chemical activity assessment 3 to 8 seeds per well of Arabidopsis pSPX1::GUS line were sown in 96-well plates containing 150 μl of low phosphate modMS liquid medium containing 1% of sucrose. Compounds were added in 50 μM concentration, starting from a 5 mM stock of compounds solved in DMSO. Different chemical substances were separately added to different wells. Per plate, 16 control wells were used, 8 containing only the low phosphate medium and 1% DMSO, and 8 containing high phosphate medium and 1% DMSO. 7 days after germination, plates were scanned using a flatbed scanner (EPSON Expression 11000XL) and analyzed for leaf size. After scanning, the growth medium was replaced by GUS staining solution (see Plant Mol. Biol. Rep. 1994, 12: 37-42 for details) and incubated for 1.5 hours at 37° C. The plates were scanned a second time and analyzed for GUS signal area. Measurements of both leaf area and GUS signal area were conducted by filtering out and measure the green and blue signal, respectively using ImageJ software. If the green leaf area was 50% or less than the control, samples were omitted. Additionally, all results were visually screened for leaf size and GUS signal.
To identify new substances that suppress the expression of the SPX1 phosphate starvation biomarker, we used an Arabidopsis SPX1 reporter line pSPX1::GUS. […] This observation was confirmed in two experimental repeats.

[2] = test system: Arabidopsis thaliana Columbia-0; test: Arabidopsis vertical plate growth assay (primary root length, shoot biomass); assay type: in vivo; details: low phosphate
Procedure: as §1
(§2) Arabidopsis primary root growth experiments were done on MS1/2 on vertical standing plates and roots were measured 11 days after germination. Roots were imaged using a flatbed scanner (EPSON Expression 11000XL) and root length was measured using ImageJ software. Arabidopsis shoot biomass was determined in 11 days after germination and growth on vertical standing plates with modMS. Arabidopsis leaf area was measured 21 days after germination on horizontal plates with modMS medium. Plates were scanned from the top using a flatbed scanner (EPSON Expression 11000XL) and the visible leaf area was measured using ImageJ software. Rice plate experiments used vertically standing Petri dishes containing MS1/2 medium (low phosphate—0.001 mM) solidified with 0.8% washed agar. Plant height was measured 11 days after germination. […] Plant height was measured 13 days after germination. […]

[3] = test system: Arabidopsis thaliana Columbia-0; test: Root hair number and length quantification, Arabidopsis vertical plate; assay type: in vivo
Procedure: as §1
Roots were imaged using a stereomicroscope or a VHX-6000. Number and length of the root hairs parallel to the medium surface was determined at 4 to 6 mm above the root meristem. Root hair length was measured using the ImageJ software.

[4] = test system: Arabidopsis thaliana Columbia-0; test: Arabidopsis 96-well plate anthocyanin quantification; assay type: in vivo
Procedure: Col-0 ecotype Arabidopsis seeds were sown in 96-well plates containing 150 μl of low phosphate modMS liquid medium containing 1% of sucrose. Compounds was added in 50 μM concentration (1% DMSO). Eight plants per repeat were collected 7 days after germination and put into a fresh Eppendorf. Extraction and quantification of anthocyanin levels was carried out according to The Plant cell 2013, 25:1641-1656. Anthocyanin levels were quantified by measuring absorption at 530 and 657 nm using a spectrophotometer and normalized to fresh weight input, and expressed relative to the low phosphate control. For pot experiments, the same procedure was followed with one 4-week old plant per sample.

rice cultivar Nipponbare [5] = test: Rice plate experiment (plant height); assay type: in vivo; details: low phosphate 0.001 mM, 10 μM compound, 11 days after germination
Procedure: (§3) All Arabidopsis plant experiments were performed using the Arabidopsis thaliana Columbia-0 background. The Arabidopsis pSPX1::GUS line is described in the […] 2008, 54: 965-975. For rice, the cultivar Nipponbare was used. For maize, the cultivars DKC 2931 and 8104 were used for regular pot experiments and sand-based pot experiments, respectively. For soybean, the cultivar Primus was used. […] The medium was solidified due to the addition of 0.6% Gelrite, unless stated otherwise. […]
as §2, with “Rice plate experiments used vertically standing Petri dishes containing MS1/2 medium (low phosphate—0.001 mM) solidified with 0.8% washed agar.” left out

rice cultivar Nipponbare [6] = test: Rice box experiment (plant height); assay type: in vivo; details: low phosphate 0.025 mM, 10 μM compound, 13 days after germination
Procedure: as §3
as §2, with “Rice plate experiments used vertically standing Petri dishes containing MS1/2 medium (low phosphate—0.001 mM) solidified with 0.8% washed agar.” left out

maize cultivar 8104 = test: Sand-based maize pot experiment; assay type: in vivo; details: low phosphate, 10 μM compound
Procedure: as §1
Regular Arabidopsis, soybean and maize pot experiments used an unfertilized potting soil, which was supplemented at the start of the experiment with 50 ml H2O containing 0.25 g/l NH4NO3 and 0.44 g/l (high phosphate) or no (maize and soybean) or 0.11 g/l KH2PO (Arabidopsis) for low phosphate conditions. For the sand-based maize pot experiment, sand was supplemented with 50 ml H2O containing 0.25 g/l NH4NO3 and 0.38 g/l (high phosphate) or 0.02 g/l (low phosphate) KH2PO4. Potassium was balanced via addition of KCl. Compound concentration was 10 μM, calculated based on the total water content after watering, and was added at the start of the experiment (Arabidopsis) or once a week (maize). Indexed chlorophyll contents were received via a SPAD 502 Plus Chlorophyll Meter. All parameters in the sand experiment, except the rate of leaf 4 (measured the first 4 days after emergence), were measured 19 days after sowing. Measurements in the pot experiments with potting soil were done after 4 weeks of growth, except for leaf 5, which was measured at 26 days. The long term maize pot experiment was performed on the automated Phenovision platform (see Mertens et al, 2021, https://doi.org/10.3389/fpls.2021.640914) with maize cultivars B104 and DKC2931. End point measurements occurred after 90 days (B104) or 70 days (DKC2931). Plants were grown on an unfertilized potting soil, which was fertilized bi-weekly with 50 mL modified Hoagland solution (2.5× concentrated; but with 0.25 mM KH2PO4).

[7] = Arabidopsis vertical plate, 10 μM compound, 11 days after germination
[8] = Arabidopsis vertical plate, high phosphate

In the case of `CCN(CCCNc1ncnc2nc(N)ccc12)c1ccccc1` [Example 1], the “GUS (SPX1) stained area normalized to the number of seeds” value ([1]; 50 μM compound, low phosphate modMS liquid medium, 96-well, 7 days after germination, low phosphate control of same plate) is reported as 0.3 pixels, the “Suppression of the SPX1 biomarker (in words)” value ([1]; low phosphate, 7 days of growth, GUS staining, listed as compound 17) is reported as “practically completely suppressed the SPX1 biomarker; also recorded: strongest suppression of SPX1” and the “Primary root length compared with the control without compound (in words)” value ([2]; 10 μM, 11-day-old Arabidopsis) is reported as “almost double the length of the control”. For the same compound, the Primary root length [2, 7] was 3.4 cm, the Shoot biomass [2, 7] was 21 mg and the activity at 1 µM ([3]; Arabidopsis thaliana, 1 μM compound, read-out: Total root hair length per root (in % compared to the control)) was 749%. The “Average root hair length per root in high phosphate conditions” value [3, 8] was 0.26 mm, the “Root hair number in high phosphate conditions (one plane in 2 mm region)” value [3, 8] was 9 and the “Total root hair length per root in high phosphate conditions” value [3, 8] was 0.26 cm. The “Anthocyanin level in the leaves (in words)” value ([4]; 96-well plate assay) was “reduced”, the Relative anthocyanin level ([4]; Arabidopsis 96-well plate, low phosphate, 50 μM compound, 7 days after germination, relative to control (=1)) was 0.6 and the Plant height (rice cultivar Nipponbare [5]) was 15 cm. For the same compound, the Plant height (rice cultivar Nipponbare [6]) was 4.1 cm, the Crown root number (maize cultivar 8104; 19 days after sowing) was 8 and the Plant height (maize cultivar 8104; 19 days after sowing) was 27 cm. The Indexed chlorophyll content (maize cultivar 8104; SPAD meter, 19 days after sowing) was 31 and the “Growth rate of leaf 4” value (maize cultivar 8104; first 4 days after emergence) was 2.64 cm/day.
